In US5882881A, “Inhibition of cyst formation by cytoskeletal specific drugs” (priority 1998, dated 1999):
“Also recorded” adds a separate entry of the source. Where two headings read alike, the source gives them in different places.

Legend:
Murine CPK Cells [1] = test: In vitro cyst formation and cyst size in suspension culture of murine CPK cells; assay type: cell-based, mouse; details: day 21, 24 h, final concentration per Table II (cytosine arabinoside 20 μg/ml, α-amanitin 100 ng/ml, cycloheximide 49 μg/ml, ouabain 1 mM, amiloride 1 mM, brefeldin-A 10 μg/ml, griseofulvin 350 μM, colchicine 10 μM, vinblastine 1 μM, nocodazole 30 μM, taxol 25 μM, cytochalasins 10 μM)
Murine CPK Cells [2] = test: as above; assay type: cell-based, mouse; details: for Cyst Size: mean ± SD of twenty cysts, concentrations as in Table II, control 71 ± 22; for cyst formation (in words): 24 h suspension culture, ouabain 0.5 mM, also 1 mM, b155 taxol 25 μM, colchicine 10 μM, vinblastine 1 μM, cytochalasins 10 μM, model species not given
Procedure: At 10, 21 and 28 days after birth, mice having congenital polycystic kidney disease (CPK) and their phenotypically normal littermates were sacrificed by cervical dislocation. Kidneys were harvested aseptically and washed with DMEM/F12 (Sigma Chemical Co., St. Louis, Mo.) in a 1:1 mix. Each decapsulated kidney was chopped into cubes (1 mm) and incubated in 5 ml of collagenase solution composed of 1 mg/ml collagenase type IV (Worthington Biochemical Corporation, Freehold, N.J.), 1 mg/ml egg white trypsin inhibitor (Worthington) in 1:1 DMEM/F12.
The top 12 mls, which contained both single cells and aggregates of up to 10 cells, as assessed by inverted phase-ontrast microscopy, were placed in 2 ml aliquots in the wells of plastic culture plates (Corning, N.Y.) precoated with 1% agarose in DMEM:F12 (2 ml in each well of a 6-well plate; 1 ml in each well of a 24-well plate). Cell samples were digested with further incubation for 10 minutes in 0.05% trypsin and 0.53 mM EDTA (Gibco, BRL Gaithesburg, Md.) at 37° C. All cultures were plated at a final density of 1-3×10^4 cell, per well. For growth studies of monolayer cells, identical preparations were grown on the plastic surface of the culture plates. Both the monolayers and the cell suspensions were incubated at 37° C. in a moisture saturated incubator in 5% CO2 and air.
(§1) I used the in vitro cyst formation system of the present invention to analyze compounds that affect the process of cyst formation. To determine the therapeutic effectiveness of an agent, cyst-forming cells are suspended in a medium to which the agent has been added. These cells are then cultured on a solid phase without formation of a layer of cells on the surface, such as in the assay system described in Example 1. The extent to which the cells actually form cysts can be detected and compared to the extent of cyst formation expected if no agent were added. If the amount of cyst formation is lower than expected, then the agent is a good candidate for therapeutic intervention of cystic diseases.
(§2) The effects of various metabolic inhibitors on cyst formation were studied in cultures derived from day 21 postnatal CPK mice. […] Taxol (25 μM), a microtubule specific inhibitor, was from Calbiochem (La Jolla, Calif.). All other chemicals were obtained from Sigma Chemical Co. Cytosine arabinoside was added at the final concentration of 20 μg/ml to inhibit DNA synthesis; α-amanitin at 100 ng/ml to inhibit RNA synthesis; cycloheximide at 40 μg/ml to inhibit protein synthesis; amiloride at 1 mM to inhibit the renal epithelial Na^+ -H^+ exchange; ouabain at 0.5 mM to inhibit Na^+ -K^+ -ATPase; brefeldin-A at 10 μg/ml to inhibit transport of surface proteins; griseofulvin at 350 μM to inhibit microtubule function; colchicine at 10 μM to inhibit microtubule polymerization; and cytochalasin-B and cytochalasin-D at 10 μM to depolymerize actin filaments.
(§3) In the presence of these metabolic inhibitors in vitro, cyst formation was noted to be either present or absent; if present, the diameters of 20 cysts from a 0.2 ml aliquot were measured. In the same samples, ^3 H-dThd incorporation was also measured as described above. […] After each wash, cell clusters were collected by centrifuging at 200×g for 1 minute and the supernatant discarded. Washed cell clusters were resuspended in the original volume of growth medium without inhibitors, placed in agarose coated wells and incubated at 37° C. in a moisture saturated incubator in 5% CO2 and air.
(§4) In this table, the mean cyst size is reported as ±SD with a measurement of twenty cysts. The ^3 H-dThd incorporation is reported as ±SD using measurements of three wells. The * indicates […] versus control. […] The entries listed as "NA" in the table indicate data that is not available.

Murine CPK Cells [3] = test: 3H-thymidine incorporation (DNA synthesis) in CPK cell suspension culture; assay type: cell-based, mouse; details: for ^3 H-dThd Incorporation: ± SD, three wells, concentrations as in Table II, control 100 ± 11, 1440 min; for ^3 H-dThd incorporation / DNA synthesis (in words): CPK cultures
Procedure: Growth studies were performed on kidney cells derived from day 10, 21 and 28 postnatal CPK mice and their normal littermates. Immediately after cells were placed in suspension or monolayer culture, 3 μCi of ^3 H-thymidine (^3 H-dThd, specific activity 45 Ci/mmol, Amersham, Ill.) was placed in each well of the culture plate. DNA synthesis was assessed by incorporation of ^3 H-dThd over the 24 hours of culture, and trichloroacetic acid-insoluble. radioactivity was expressed as cpm/μg protein. Protein was assayed with the BCA reagent as described by the manufacturer (Pierce, Rockford, Ill.). At 24 hours of culture, an aliquot (0.2 ml) of the suspension was removed and the number of cysts counted using an inverted microscope. The number of cysts was expressed as a ratio factored for the total number of cells in the suspension at 24 hours of culture. Cyst diameter was measured at 100× using an eyepiece micrometer.
as §2, §3, §4

human ADPKD cells = test: In vitro cyst formation in human ADPKD cells; assay type: cell-based
Text: I have substituted human ADPKD cells for the murine CPK cells of Example 1 and produced similar results. Other cyst-forming cells are believed to also form suitable results with only minor deviations from the conditions set forth in Example 1.
Cell suspensions were separated from debris by sedimentation at unit gravity and decantation. After washing once with DMEM/F12 medium, cells were suspended in DMEM/F12 supplemented with 1.2 gm/l sodium bicarbonate, 1× insulin, transferrin and selenium (Sigma # 11184), 1% lipids supplement (Sigma # L4646) and 1× antibiotic/antimycotic (Sigma # A7292) at a density of 5×10^4 cells per ml. Two mls of the cell suspension were aliquoted into each well of a six-well plastic cell culture plates that had been precoated with 2 mls of 1% low melting point agarose in DMEM/F12 and incubated at 37° C. in a humidified atmosphere of 5% CO2 in air.
as §1

homozygous cpk mice = test: Survival of cpk mice on weekly intraperitoneal treatment (Example 8, FIG. 2); assay type: in vivo, mouse
Text: Untreated and methotrexate (MTX) treated polycystic cpk mice all died before 30 days of age. Most polycystic cpk mice treated with weekly taxol survive more than 60 days. The dotted line starting at day 120 indicates the number and age of apparently healthy taxol treated polycystic mice that were sacrificed for histology studies. Pairs of mice were sacrificed at 120 days, 182 days and 210 days of age.
In order to determine whether taxol prevents cyst formation by inhibiting cell division, another drug known to have anti-mitotic activity, methotrexate, was tested for its ability to treat homozygous cpk mice. Six cpk mice were injected intraperitoneally with 15 μl of methotrexate solution (1.1 mg/ml in water) 10-12 days after birth and once every week thereafter. The methotrexate-injected mice survived until between 18 and 27 days after birth, with only one mouse living longer than 28 days. […] Therefore, the anti-mitotic activity of taxol cannot explain its ability to treat CPK mice having a polycystic-type kidney disease. Rather, the results from in vitro tests indicate that agents which interfere with the function of the cytoskeleton, or which inhibit the delivery of membrane proteins are useful in treating cystic diseases such as Polycystic Kidney Disease.
Eleven homozygous cpk mice, raised and identified as in Example 6 were treated with 15 μl of 10 mg/ml taxol in DMSO through intraperitoneal injection beginning 11-14 days after birth. Following the first treatment, the mice were administered with the same treatment once every week thereafter. As controls, 6 cpk mice were treated with 15 μl intraperitoneal injections of DMSO beginning 10-12 days after birth and then once every week thereafter.

[4] = human ADPKD cells, cytosine arabinoside 20 μg/ml, α-amanitin 100 ng/ml, cycloheximide 40 μg/ml, amiloride 1 mM, ouabain 0.5 mM, taxol 25 μM, colchicine 10 μM, vinblastine 1 μM, cytochalasins 10 μM

Compound	Cyst Formation (+/-) (Murine CPK Cells [1])	Cyst Size (Murine CPK Cells [2]) [μm]	cyst formation (in words) (Murine CPK Cells [2]; murine CPK cells)	^3 H-dThd Incorporation (Murine CPK Cells [3]) [% control]	cyst formation (in words) (human ADPKD cells; [4])	other results
C[C@H]1CCC/C=C/[C@@H]2C[C@H](O)C[C@H]2[C@H](O)/C=C/C(=O)O1 [Brefeldin-A]	-	0	completely inhibited cyst formation			
C[C@@H]1C[C@@H]([C@H](O)CC2CC(=O)NC(=O)C2)C(=O)[C@@H](C)C1 [Cycloheximide]		68 ± 17		88 ± 20		cyst formation (in words) (human ADPKD cells): Neither cytosine arabinoside (20 μg/ml), α-amanitin (100 ng/ml) nor cycloheximide (40 μg/ml) inhibited cyst formation; Cyst Formation (+/-) (Murine CPK Cells [2]): +
COc1cc2c(c(OC)c1OC)-c1ccc(OC)c(=O)cc1[C@@H](NC(C)=O)CC2 [Colchicine]				97 ± 12		
α-amanitin		65 ± 27		71 ± 10	Neither cytosine arabinoside (20 μg/ml), α-amanitin (100 ng/ml) nor cycloheximide (40 μg/ml) inhibited cyst formation	^3 H-dThd incorporation / DNA synthesis (in words) (Murine CPK Cells [3]): small, but significant, decrease in ^3 H-dThd incorporation; Cyst Formation (+/-) (Murine CPK Cells [2]; murine CPK cells, day 21, 24 h, final concentration per Table II (cytosine arabinoside 20 μg/ml, α-amanitin 100 ng/ml, cycloheximide 49 μg/ml, ouabain 1 mM, amiloride 1 mM, brefeldin-A 10 μg/ml, griseofulvin 350 μM, colchicine 10 μM, vinblastine 1 μM, nocodazole 30 μM, taxol 25 μM, cytochalasins 10 μM)): +
CN(Cc1cnc2nc(N)nc(N)c2n1)c1ccc(C(=O)N[C@@H](CCC(=O)O)C(=O)O)cc1 [Methotrexate]						survival, age (homozygous cpk mice; weekly i.p. treatment, DMSO mice survived 24-28 days, FIG. 2: all methotrexate, most taxol mice, b191: remaining six taxol mice > 120, two died < 30): < 30 days; survival (in words) (homozygous cpk mice; weekly i.p., versus untreated or DMSO): did not appear to survive substantially longer than untreated controls
COC(=O)Nc1nc2ccc(C(=O)c3cccs3)cc2[nH]1 [Nocodazole]	-	0	reversibly inhibited	87 ± 16	reversibly inhibited	
CC[C@]1(O)C[C@@H]2CN(CCc3c([nH]c4ccccc34)[C@@](C(=O)OC)(c3cc4c(cc3OC)N(C)[C@H]3[C@@](O)(C(=O)OC)[C@H](OC(C)=O)[C@]5(CC)C=CCN6CC[C@]43[C@@H]65)C2)C1 [Vinblastine]	-	0	reversibly inhibited in vitro cyst formation in both models	93 ± 9	reversibly inhibited in vitro cyst formation in both models	
Nc1ccn([C@@H]2O[C@H](CO)[C@@H](O)[C@@H]2O)c(=O)n1 [Cytosine arabinoside, cytosine arabinoside]	+	70 ± 21	cyst formation was not affected; also recorded: cyst formation was not impaired after 24 hours of culture	2 ± 2	Neither cytosine arabinoside (20 μg/ml), α-amanitin (100 ng/ml) nor cycloheximide (40 μg/ml) inhibited cyst formation; also recorded: no effect on in vitro cyst formation is observed	^3 H-dThd incorporation / DNA synthesis (in words) (Murine CPK Cells [3]): profound decrease in ^3 H-dThd incorporation; also recorded: effectively abolished ^3 H-dThd incorporation; ^3 H-dThd Incorporation (Murine CPK Cells [3]; listed as cytosine arabinoside): 2±2 % control
C=C1C(C)C2C(Cc3ccccc3)NC(=O)C23C(OC(C)=O)/C=C/C(C)(O)C(=O)C(C)C/C=C/C3C1O (stereo not shown) [Cytochalasin-D]	-	0	effectively inhibited cyst formation in both models	97 ± 2	effectively inhibited cyst formation in both models	
C=C1C(C)C2C(Cc3ccccc3)NC(=O)C23OC(=O)/C=C/C(O)CCCC(C)C/C=C/C3C1O (stereo not shown) [Cytochalasin-B]	-	0	effectively inhibited cyst formation in both models	96 ± 5	effectively inhibited cyst formation in both models	
N=C(N)NC(=O)c1nc(Cl)c(N)nc1N [Amiloride]	-	0		72 ± 25	completely block cyst formation	cyst formation (in words) (human ADPKD cells; human ADPKD cells, cytosine arabinoside 20 μg/ml, α-amanitin 100 ng/ml, cycloheximide 40 μg/ml, amiloride 1 mM, ouabain 0.5 mM, taxol 25 μM, colchicine 10 μM, vinblastine 1 μM, cytochalasins 10 μM, listed as amiloride): cyst formation can be blocked; time to lumen appearance after removing the inhibitor (human ADPKD cells; human model): twenty-four; reversibility of inhibition of cyst formation (human ADPKD cells; human model, inhibitor removed): reversible
